In article PMC9501377, “New Diarylamine KV10.1 Inhibitors and Their Anticancer Potential” (Pharmaceutics, 2022):
Values joined by “and” are separate entries in the source; they are usually repeats but may differ in a detail not shown here. Equal entries are not always repeated.

How the values were obtained:
KV10.1 = biological target: T1, KV10.1 (Homo sapiens, UniProt O95259); assay: Two-electrode voltage-clamp on Xenopus laevis oocytes expressing KV10.1; assay type: cell-based; settings: voltage-clamped
T1 construct: expressed in transfected cells; host or cells: Xenopus laevis oocytes (cRNA injection)
T1 sequence (O95259 1-989): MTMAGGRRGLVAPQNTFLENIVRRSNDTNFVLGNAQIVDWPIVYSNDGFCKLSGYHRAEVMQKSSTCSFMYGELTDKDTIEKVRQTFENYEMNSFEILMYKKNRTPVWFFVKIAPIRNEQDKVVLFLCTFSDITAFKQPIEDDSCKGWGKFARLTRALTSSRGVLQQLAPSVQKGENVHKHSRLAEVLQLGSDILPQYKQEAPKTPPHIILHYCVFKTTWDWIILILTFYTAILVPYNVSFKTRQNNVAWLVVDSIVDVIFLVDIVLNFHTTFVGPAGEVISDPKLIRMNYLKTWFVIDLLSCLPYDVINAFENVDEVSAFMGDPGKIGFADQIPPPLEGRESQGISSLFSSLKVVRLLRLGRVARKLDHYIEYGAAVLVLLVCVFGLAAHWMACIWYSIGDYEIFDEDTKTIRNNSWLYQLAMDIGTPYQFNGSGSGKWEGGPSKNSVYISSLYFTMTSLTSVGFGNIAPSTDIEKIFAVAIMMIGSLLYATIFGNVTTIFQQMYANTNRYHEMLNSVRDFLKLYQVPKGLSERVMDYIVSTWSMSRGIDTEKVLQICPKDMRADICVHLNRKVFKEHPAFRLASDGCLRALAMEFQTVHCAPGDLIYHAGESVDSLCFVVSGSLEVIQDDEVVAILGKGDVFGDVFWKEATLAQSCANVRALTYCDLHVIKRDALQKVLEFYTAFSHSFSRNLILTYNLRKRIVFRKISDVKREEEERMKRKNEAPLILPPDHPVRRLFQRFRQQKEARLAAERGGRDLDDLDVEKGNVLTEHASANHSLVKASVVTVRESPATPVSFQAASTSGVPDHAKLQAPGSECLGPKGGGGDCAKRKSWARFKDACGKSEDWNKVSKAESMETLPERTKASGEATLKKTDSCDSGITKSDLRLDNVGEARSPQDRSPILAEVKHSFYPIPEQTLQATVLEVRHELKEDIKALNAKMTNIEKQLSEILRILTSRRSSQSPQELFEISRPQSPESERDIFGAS
Excerpt: (§1) Stage V–VI oocytes were isolated by partial ovariectomy from Xenopus laevis frogs (African clawed frog). Mature female frogs were purchased from CRB Xénopes (Rennes, France) and were housed in the Aquatic Facility (KU Leuven) in compliance with the regulations of the European Union (EU) concerning the welfare of laboratory animals as declared in Directive 2010/63/EU. The use of Xenopus laevis was approved by the Animal Ethics Committee of the KU Leuven (Project nr. P186/2019). After anesthetising the frogs by a 15 min submersion in 0.1% tricaine methanesulphonate (pH 7.0), the oocytes were collected. The isolated oocytes were then washed with a 1.5 mg/mL collagenase solution for 2 h to remove the follicle layer.
(§2) Ion channels (KV10.1 and hERG) were expressed in Xenopus laevis oocytes, by linearisation of the plasmids and subsequent in vitro transcription using a commercial T7 or SP6 mMESSAGE mMACHINE transcription kit (Ambion, Carlsbad, CA, USA). Defolliculated Xenopus oocytes were then injected with 20–50 nL of the cRNA at a concentration of 1 ng/nL using a micro-injector (Drummond Scientific1, Broomall, PA, USA). The oocytes were incubated in a solution containing (in mM): NaCl, 96; KCl, 2; CaCl2, 1.8; MgCl2, 2 and HEPES, 5 (pH 7.4), supplemented with 50 mg/L gentamycin sulphate and […]. After ex vivo translation, the ion channels are correctly inserted in the cell membrane of the oocytes.
(§3) Two-electrode voltage-clamp recordings were performed at room temperature (18–22 °C) using a Geneclamp 500 amplifier (Molecular Devices, San Jose, CA, USA) controlled by a pClamp data acquisition system (Axon Instruments1, Union City, CA, USA) and using an integrated digital TEVC amplifier controlled by HiClamp, an automated Voltage-Clamp Screening System (Multi Channel Systems MCS GmbH, Reutlingen, Germany). Whole-cell currents from oocytes were recorded 1–7 days after injection. The bath solution composition was ND96 (in mM): NaCl, 96; KCl, 2; CaCl2, 1.8; MgCl2, 2 and HEPES, 5 (pH 7.5). Voltage and current electrodes were filled with a 3 M solution of KCl in H2O. Resistances of both electrodes were kept between 0.5 and 1.5 MΩ. The elicited Kv10.1 and hERG currents were filtered at 0.5 kHz and sampled at 2 kHz using a four-pole low-pass Bessel filter. Leak subtraction was performed using a p/4 protocol. Starting from a holding potential of −90 mV, currents for Kv10.1 were evoked by 1 s depolarizing pulses to 0 mV and currents for hERG were evoked by 2.5 s depolarizing prepulses to +40 mV, followed by hyperpolarizing pulses to −120 mV for 2.5 s. The concentration dependency of all compounds was assessed by measuring the current inhibition in the presence of increasing compound concentrations. To this end, a stock solution of the compounds was prepared in 100% DMSO for the sake of solubility. From this stock solution, adequate dilutions with a maximum of 0.5% DMSO were made for testing. The data of the concentration–response curves were fitted with the Hill equation: y = 100/{1 + (IC50/[compound])^h}, where y is the amplitude of the compound- induced effect, IC50 is the compound concentration at half-maximal efficacy, (compound) is the compound concentration, and h is the Hill coefficient.
(§4) All electrophysiological data are presented as means ± SEM of n ≥ 3 independent experiments unless otherwise indicated. Oocyte data were analysed using pClamp Clampfit 10.4 (Molecular Devices, Downingtown, PA, USA) and OriginPro 9 (Originlab, Northampton, MA, USA) or GraphPad Prism 8 software (GraphPad Software, Inc., San Diego, CA, USA). Patch-clamp data analysis was performed using FitMaster (HEKA Electronics), IgorPro (Wavemetrics, Inc., Lake Oswego, OR, USA) and GraphPad Prism 9 (GraphPad Software, Inc., San Diego, CA, USA). The Dunnett test and one-way ANOVA were performed to calculate the significance of the induced inhibition compared to the control (p < 0.05).

hERG = hERG (Homo sapiens, UniProt Q12809); assay: Two-electrode voltage-clamp on Xenopus laevis oocytes expressing hERG; assay type: cell-based; design: expressed in transfected cells; host or cells: Xenopus laevis oocytes (cRNA injection); settings: voltage-clamped; for inhibition at 10 µM: human, Xenopus laevis oocytes expressing hERG, pH 7.5, 10 μM
Excerpt: as §1, §2, §3, §4

Chain of hERG (Q12809 whole entry): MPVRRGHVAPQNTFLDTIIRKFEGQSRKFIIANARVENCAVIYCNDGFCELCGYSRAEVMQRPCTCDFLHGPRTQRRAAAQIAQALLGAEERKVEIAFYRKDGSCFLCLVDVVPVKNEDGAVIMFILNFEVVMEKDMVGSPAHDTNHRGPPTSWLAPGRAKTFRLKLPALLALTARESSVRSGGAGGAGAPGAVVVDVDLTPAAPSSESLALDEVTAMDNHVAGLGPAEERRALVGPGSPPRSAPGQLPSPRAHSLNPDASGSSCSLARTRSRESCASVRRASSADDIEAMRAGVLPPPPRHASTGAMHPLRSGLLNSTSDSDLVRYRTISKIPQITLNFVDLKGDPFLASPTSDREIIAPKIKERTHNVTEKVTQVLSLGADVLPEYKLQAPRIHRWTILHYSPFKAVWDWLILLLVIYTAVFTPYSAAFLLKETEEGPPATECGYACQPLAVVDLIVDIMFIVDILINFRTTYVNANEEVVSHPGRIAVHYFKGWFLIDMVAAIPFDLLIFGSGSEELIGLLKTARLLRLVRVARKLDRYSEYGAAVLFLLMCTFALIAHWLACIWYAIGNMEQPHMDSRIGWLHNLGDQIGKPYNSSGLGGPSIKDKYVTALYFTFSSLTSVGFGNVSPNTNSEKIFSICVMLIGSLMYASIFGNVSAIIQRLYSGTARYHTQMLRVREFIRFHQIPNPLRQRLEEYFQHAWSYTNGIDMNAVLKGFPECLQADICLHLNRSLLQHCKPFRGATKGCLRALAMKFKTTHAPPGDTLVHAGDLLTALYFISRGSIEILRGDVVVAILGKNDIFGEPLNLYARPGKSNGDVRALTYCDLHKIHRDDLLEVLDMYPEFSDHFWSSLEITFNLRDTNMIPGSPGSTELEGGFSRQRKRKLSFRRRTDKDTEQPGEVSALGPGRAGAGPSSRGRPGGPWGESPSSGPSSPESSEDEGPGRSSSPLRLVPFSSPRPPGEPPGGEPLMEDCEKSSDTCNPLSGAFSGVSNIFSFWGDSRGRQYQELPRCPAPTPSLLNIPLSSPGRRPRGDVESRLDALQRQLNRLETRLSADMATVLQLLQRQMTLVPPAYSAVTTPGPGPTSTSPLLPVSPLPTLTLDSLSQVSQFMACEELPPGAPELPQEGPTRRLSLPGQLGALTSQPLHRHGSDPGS

Row | Compound | inhibition at 10 µM (KV10.1; 10 μM) [%] | IC50 (KV10.1) | inhibition at 10 µM (hERG) [%] | IC50 (hERG) | % of Kv10.1 inhibition at 10 μM (Xenopus laevis oocytes) (KV10.1; 10 μM) | % of hERG inhibition at 10 μM (Xenopus laevis oocytes) (hERG; 10 μM)
1 | CCN(CC)CCOc1ccc(Nc2ccc(C(F)(F)F)cc2[N+](=O)[O-])cc1 [Compound 17a, N-(4-(2-(Diethylamino)ethoxy)phenyl)-2-nitro-4-(trifluoromethyl)aniline] | 63.5 | 3.58 µM and 3.6 µM | 64.5 | 2.01 µM and 2 µM |  | 
2 | O=[N+]([O-])c1cc(C(F)(F)F)ccc1Nc1ccc(OCc2ccccc2)cc1 [Compound 14, N-(4-(Benzyloxy)phenyl)-2-nitro-4-(trifluoromethyl)aniline] | -1.18 |  | 4.23 |  |  | 
3 | CN(C)CC(O)COc1ccc(NC(=O)c2ccc(C(F)(F)F)cc2[N+](=O)[O-])cc1 (centres unmarked) [Compound 6b, N-(4-(3-(Dimethylamino)-2-hydroxypropoxy)phenyl)-2-nitro-4-(trifluoromethyl)benzamide] | -0.41 |  | 9.83 |  |  | 
4 | O=[N+]([O-])c1cc(C(F)(F)F)ccc1Oc1ccc(OCC(O)CN2CCOCC2)cc1 (centres unmarked) [Compound 5b, 1-Morpholino-3-(4-(2-nitro-4-(trifluoromethyl)phenoxy)phenoxy)propan-2-ol] | 24.9 |  | 11.5 |  |  | 
5 | O=C(O)c1ccccc1Nc1ccc(OCC(O)CN2CCOCC2)cc1 (centres unmarked) [Compound 10a, 2-((4-(2-Hydroxy-3-morpholinopropoxy)phenyl)amino)benzoic acid] | 13 |  | 3.42 |  |  | 
6 | O=[N+]([O-])c1ccc(Nc2ccc(OCC(O)CN3CCOCC3)cc2)c([N+](=O)[O-])c1 (centres unmarked) [Compound 5f, 1-(4-((2,4-Dinitrophenyl)amino)phenoxy)-3-morpholinopropan-2-ol] | 41.3 |  | 65.8 |  |  | 
7 | CNCC(O)COc1ccc(Nc2ccc(C(F)(F)F)cc2[N+](=O)[O-])cc1 (centres unmarked) [Compound 15, 1-(Methylamino)-3-(4-((2-nitro-4-(trifluoromethyl)phenyl)amino)phenoxy)propan-2-ol] | 39.9 |  | 58.6 |  |  | 
8 | CCN(CC)CCOc1c(Br)cc(Nc2ccc(C(F)(F)F)cc2[N+](=O)[O-])cc1Br [Compound 17b, 3,5-Dibromo-4-(2-(diethylamino)ethoxy)-N-(2-nitro-4-(trifluoromethyl)phenyl)aniline] | 19.5 |  | 60.1 |  |  | 
9 | O=[N+]([O-])c1cc(C(F)(F)F)ccc1Nc1ccc(OCCN2CCOCC2)cc1 [Compound 13, N-(4-(2-Morpholinoethoxy)phenyl)-2-nitro-4-(trifluoromethyl)aniline] | 22.6 |  | 34.7 |  |  | 
10 | Methyl 2-((4-(2-hydroxy-3-morpholinopropoxy)phenyl)amino)benzoate [Compound 5e] |  |  |  |  | -2.17% ± 3.06 | 37.32% ± 13.11
11 | CN(C)CCOc1ccc(Nc2ccc(C(F)(F)F)cc2[N+](=O)[O-])cc1 [Compound 18a, N-(4-(2-(Dimethylamino)ethoxy)phenyl)-2-nitro-4-(trifluoromethyl)aniline] | 41.7 | 11.6 ± 0.35 µM | 65.2 | 7.56 ± 0.41 µM |  | 
12 | CN(C)CC(O)COc1ccc(Nc2ccc(C(F)(F)F)cc2C(=O)O)cc1 (centres unmarked) [Compound 10b, 2-((4-(3-(Dimethylamino)-2-hydroxypropoxy)phenyl)amino)-5-(trifluoromethyl)benzoic acid] | 15.7 |  | 14.7 |  |  | 
13 | COC(=O)c1ccccc1Nc1ccc(OCC(O)CN2CCOCC2)cc1 (centres unmarked) [Compound 5d, Methyl 2-((4-(2-hydroxy-3-morpholinopropoxy)phenyl)amino)benzoate] | -2.11 |  | 20.4 |  |  | 
14 | CN(C)CCOc1c(Cl)cc(Nc2ccc(C(F)(F)F)cc2[N+](=O)[O-])cc1Cl [Compound 18c, 3,5-Dichloro-4-(2-(dimethylamino)ethoxy)-N-(2-nitro-4-(trifluoromethyl)phenyl)aniline] | 58.2 | 19 ± 2.85 µM | 76.8 | 0.66 ± 0.27 µM |  | 
15 | COC(=O)c1cc(C(F)(F)F)ccc1Nc1ccc(OCC(O)CN(C)C)cc1 (centres unmarked) [Compound 6c, Methyl 2-((4-(3-(dimethylamino)-2-hydroxypropoxy)phenyl)amino)-5-(trifluoromethyl)benzoate] | 9.91 |  | 63.7 |  |  | 
16 | O=[N+]([O-])c1cc(C(F)(F)F)ccc1Nc1ccc(OCCN2CCCCC2)cc1 [Compound 20, 2-Nitro-N-(4-(2-(piperidin-1-yl)ethoxy)phenyl)-4-(trifluoromethyl)aniline] | 36.3 | 12.93 ± 0.04 µM | 75.6 | 0.59 ± 0.01 µM |  | 
17 | O=C(Nc1ccc(OCC(O)CN2CCOCC2)cc1)c1ccc(C(F)(F)F)cc1[N+](=O)[O-] (centres unmarked) [Compound 5c, N-(4-(2-Hydroxy-3-morpholinopropoxy)phenyl)-2-nitro-4-(trifluoromethyl)benzamide] | -0.66 |  | 21.5 |  |  | 
18 | CN(C)CC(O)COc1ccc(Nc2ccc([N+](=O)[O-])cc2[N+](=O)[O-])cc1 (centres unmarked) [Compound 6d, 1-(Dimethylamino)-3-(4-((2,4-dinitrophenyl)amino)phenoxy)propan-2-ol] | 44.1 |  | 74.3 |  |  | 
19 | COC(=O)c1ccccc1Oc1ccc(OCC(O)CN2CCOCC2)cc1 (centres unmarked) [Compound 5a, Methyl 2-(4-(2-hydroxy-3-morpholinopropoxy)phenoxy)benzoate] | -4.54 |  | 15 |  |  | 
20 | O=C(Cc1ccc(Cl)c(Cl)c1)NC1CCN(CC(O)COc2ccc(Nc3ccc(C(F)(F)F)cc3[N+](=O)[O-])cc2)CC1 (centres unmarked) [Compound 16d, 2-(3,4-Dichlorophenyl)-N-(1-(2-hydroxy-3-(4-((2-nitro-4-(trifluoromethyl)phenyl)amino)phenoxy)propyl)piperidin-4-yl)acetamide] | 0 |  |  |  |  | 
